Experiments:
[1] = tested on: C6 glioma cells; experiment: Scratch wound healing assay (cell migration); format: cell-based, Rat; conditions: 100 μg/mL, 1 h, NIR-808 10 min, 24 h after scraping
Experimental: Scratch wound healing assays of the PNPs, PINPs, and ICG (100 μg/mL) were studied in C6 cells as described previously. This was followed by imaging of the cells which migrated towards the cell-free zone in the scrape at 0 and 24 h, using a brightfield inverted microscope (IX71; Olympus Corp., Tokyo, Japan). The cell migration was analyzed by measuring the dimension of the gap distance using the Adobe Photoshop CC software. The details of the process being used are provided in the Supplementary Materials. […]
nanoparticle’s aqueous solution was monitored and recorded every single min by a digital […]
1.4.5. […]
1.4.6. Scratch Assay of PINPs Determined in C6 Glioma Cells […]
1.4.7. Localized Chemo-phototoxicity of PINPs Determined in C6 Cells
Next, we quantified the synergistic chemo-phototoxicity of PINPs (10 μg/mL) in comparison to other individual moieties [PNPs (chemotherapy) and ICG (phototherapy)] in C6 cells. […]
Following day cells were treated with different formulations for 30 min. […] Cells were incubated for another 24 h and were evaluated by standard MTT assay as described […]
Figure S1. Size distribution profile of self-assembled peptide nanostructures determined in a mixture of HFIP-water at a ratio of 1:19 v/v. […]

[2] = tested on: C6 cells; experiment: Localized chemo-PTT/PDT toxicity, brightfield imaging; format: cell-based, Rat; conditions: 100 μg/mL, 30 min
Experimental: The localized collaborative chemo-phototoxicity of PINPs, in contrast to PNPs, was studied and then visualized using C6 cells. In short, to assess the thermal ablation effect, C6 cells (50,000/well in 6-well dishes) were seeded and cultured in complete media and they were treated with different formulations (100 μg/mL, for 30 min). The used complete growth media containing the formulations was then swapped with new phenol-free media without FBS. For a combined chemo-phototoxicity analysis, the corresponding wells containing cells were exposed to a NIR-808 laser for ~10 min, incubated for an additional 30 min, and subsequently imaged under a brightfield microscope (Olympus BX53; Tokyo, Japan).

Compound: CC1(C)C(/C=C/C=C/C=C/C=C2\N(CCCCS(=O)(=O)O)c3ccc4ccccc4c3C2(C)C)=[N+](CCCCS(=O)(=O)[O-])c2ccc3ccccc3c21 [ICG, indocyanine green]
- wound closure [1]: ~ 100%
- cell death (brightfield images) after NIR-808 exposure ([2]; NIR-808 ~10 min): no cell death
- cell death (brightfield images) in the dark / without NIR-808 ([2]; no laser): no cell death

From PMC9863651, “Anti-Glioma Activity Achieved by Dual Blood–Brain Barrier/Glioma Targeting Naive Chimeric Peptides-Based Co-Assembled Nanophototheranostics” (Pharmaceutics, 2023)
